Tests used:
6C3HED lymphosarcoma = 6C3HED lymphosarcoma tumor model; type: in vivo, mice (C3H); conditions: IP
Excerpt: 6C3HED--The 6C3HED lymphosarcoma was obtained in 1979 from the Division of Cancer Treatment, N.C.I., tumor bank maintained at E.G. and G. Mason Research (Worchester, Mass.). First passage tumor was stored in liquid nitrogen using standard techniques. The transplanted tumor was re-established from the tumor bank every six months or as needed. The tumor is maintained by serial passage twice weekly in C3H mice (Charles River; Wilmington, Mass.).
(§1) The tumor was removed from passage animals and minced into 1 to 3 mm square fragments using sterile techniques. Tumor pieces were checked for sterility using both Antibiotic Medium 1 and Brain Heart Infusion (Difco; Detroit, Mich.). Recipient mice were shaved and tumor pieces were implanted subcutaneously in the axillary region by trocar. Drug therapy on the appropriate schedule was initiated on the day after tumor implant. The compound was dissolved in saline for all experiments. All animals were weighed at the beginning and end of drug treatment. Food and water were provided ad libitum. On days 10 to 12, two dimensional measurements (width and length) of all tumors were taken using vernier calipers. Tumor weights were calculated from these measurements using the following formula:
(§2) Tumor Weight (mg)=Tumor Length (mm)×Tumor Width (mm)^2 /2
(§3) For all data, the tumor weight was rounded to the nearest tenth of a gram for analysis. No group is included in the analysis for therapeutic activity in which deaths attributable to drug toxicity exceeded 30 percent of the treated group.
(§4) In Table 3 which follows, column 1 gives the example number of the compound tested; column 2 provides the tumor system; column 3, the dose level; column 4, the route administered; column 5, the dosage schedule; column 6, the percent inhibition of the tumor; and column 7, the toxic deaths observed prior to completion of the study.

CA755 adenocarcinoma = CA755 adenocarcinoma tumor model; type: in vivo, mice (C57BL/6); conditions: IP, Days 1,5,9
Excerpt: CA755--The adenocarcinoma 755 is an undifferentiated mammary carcinoma which was obtained in 1980 from the Division of Cancer Treatment, N.C.I., tumor bank maintained at E.G. and G. Mason Research (Worchester, Mass.). First passage tumor was stored in liquid nitrogen using standard techniques. The transplanted tumor was re-established from the tumor bank every six months or as needed. The tumor is maintained by serial passage once a week in C57BL/6 female mice (Jackson Laboratory; Bar Harbor, Me.).
as §1, §2, §3, §4

[1] = system: P1534J lymphatic leukemia; assay: P1534J lymphatic leukemia tumor model; type: in vivo, mice (DBA/2); conditions: IP, Days 1,5,9
Excerpt: P1534J--The P1534J lymphocytic leukemia (solid form) was obtained in 1973 from the Jackson Laboratory (Bar Harbor, Me.). First passage tumor was stored in liquid nitrogen using standard techniques. Subsequent replenishment of the tumor bank with this tumor was accomplished from first passage tumor. The transplanted tumor was re-established from the tumor bank every six months or as needed. The tumor is maintained by serial passage once a week in DBA/2 mice (Charles River; Wilmington, Mass.).
as §1, §2, §3, §4

[2] = system: 6C3HED, CA755, P1534J, X5563; assay: additional tumor test systems (summary statement); type: in vivo, mice; conditions: systems include 6C3HED
Excerpt: These systems include the 6C3HED lymphosarcoma, also known as the Gardner lymphosarcoma (6C3HED); the CA-755 adenocarcinoma (CA755); the P1534J lymphatic leukemia (P1534J); and the X5563 plasma cell myeloma (X5563). Each of these systems is described in detail below.
as §1, with “formula: […]” for “formula:”

## Nc1ccn(C2O[C@H](CO)[C@@H](O)C2(F)F)c(=O)n1 (stereo partly drawn) [Example 1, 1-(4-Amino-2-oxo-1H-pyrimidin-1-yl)-2-desoxy-2,2-difluororibose]
6C3HED lymphosarcoma; 0.05 mg/kg, Daily for 8 Days
  Percent Inhibition of Tumor: 0%
  Toxic Deaths: 0/10
6C3HED lymphosarcoma; 0.1 mg/kg, Daily for 8 Days
  Percent Inhibition of Tumor: 0%
  Toxic Deaths: 0/10
6C3HED lymphosarcoma; 0.2 mg/kg, Daily for 8 Days
  Percent Inhibition of Tumor: 0%
  Toxic Deaths: 0/10
6C3HED lymphosarcoma; 0.4 mg/kg, Daily for 8 Days
  Percent Inhibition of Tumor: 8%
  Toxic Deaths: 0/10
6C3HED lymphosarcoma; 1.25 mg/kg, Days 1,5,9
  Percent Inhibition of Tumor: 0%
  Toxic Deaths: 0/7
6C3HED lymphosarcoma; 2.5 mg/kg, Days 1,5,9
  Percent Inhibition of Tumor: 1%
  Toxic Deaths: 0/7
6C3HED lymphosarcoma; 5.0 mg/kg, Days 1,5,9
  Percent Inhibition of Tumor: 49%
  Toxic Deaths: 0/7
6C3HED lymphosarcoma; 10.0 mg/kg, Days 1,5,9
  Percent Inhibition of Tumor: 88%
  Toxic Deaths: 0/7
6C3HED lymphosarcoma; 20.0 mg/kg, Days 1,5,9
  Percent Inhibition of Tumor: 95%
  Toxic Deaths: 0/7
CA755 adenocarcinoma; 1.25 mg/kg
  Percent Inhibition of Tumor: 0%
  Toxic Deaths: 0/10
CA755 adenocarcinoma; 2.5 mg/kg
  Percent Inhibition of Tumor: 44%
  Toxic Deaths: 0/10
CA755 adenocarcinoma; 5.0 mg/kg
  Percent Inhibition of Tumor: 85%
  Toxic Deaths: 0/10
CA755 adenocarcinoma; 10.0 mg/kg
  Percent Inhibition of Tumor: 86%
  Toxic Deaths: 0/10
CA755 adenocarcinoma; 20.0 mg/kg
  Percent Inhibition of Tumor: 94%
  Toxic Deaths: 0/10
[1]; 1.25 mg/kg
  Percent Inhibition of Tumor: 8%
  Toxic Deaths: 0/10
[1]; 2.5 mg/kg
  Percent Inhibition of Tumor: 30%
  Toxic Deaths: 0/10
[1]; 5.0 mg/kg
  Percent Inhibition of Tumor: 47%
  Toxic Deaths: 0/10
[1]; 10.0 mg/kg
  Percent Inhibition of Tumor: 71%
  Toxic Deaths: 2/10
[1]; 20.0 mg/kg
  Percent Inhibition of Tumor: 92%
  Toxic Deaths: 1/10
[2]
  activity in additional tumor test systems (in words): demonstrated activity in additional tumor test systems

Reference: patent US5464826A, “Method of treating tumors in mammals with 2',2'-difluoronucleosides” (Eli Lilly and Company, priority 1994, dated 1995)
